Laboratory results reported in patent US9938322B2, “β-hairpin peptidomimetics” (priority 2013, dated 2018).
Where a SMILES comes first, the peptide text is derived from it. [ ]: non-standard residue; d: D form. The star is where a group is joined. Tic(7-OH) = O=C(O)[C@@H]1Cc2ccc(O)cc2CN1; Pro(3S-OH) = O=C(O)[C@H]1NCC[C@@H]1O; Dap(CONH2) = NC(=O)NC[C@H](N)C(=O)O; cisHyp = O=C(O)[C@@H]1C[C@H](O)CN1; Cha = N[C@@H](CC1CCCCC1)C(=O)O; Chg = N[C@H](C(=O)O)C1CCCCC1; Tle = CC(C)(C)[C@H](N)C(=O)O; Pip = O=C(O)[C@@H]1CCCCN1; dDab = NCC[C@@H](N)C(=O)O; Orn = NCCC[C@H](N)C(=O)O; Dab = NCC[C@H](N)C(=O)O; Dap = NC[C@H](N)C(=O)O; Bn = c1ccc(C*)cc1

tested on: human red blood cells (hRBC); assay: Hemolysis of human red blood cells; type: cell-based; conditions: red cells of human, 1 h, 100
Outline: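 Washed fresh human erythrocytes (20% v/v, about 0.9×10^9 cells/ml final) incubated with peptide at 100 μg/ml for 1 h at 37° C with shaking. Supernatant OD540 read; hemolysis expressed relative to 2.5% Triton X-100 (100%) and PBS with 0.001% acetic acid (0%).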

SMILES | Hemolysis at 100 μg/ml
CC(C)[C@@H]1NC(=O)[C@@H]2CCCN2C(=O)[C@H]2CCCN2C(=O)[C@H](CO)NC(=O)[C@H](C)NC(=O)[C@H](C(C)(C)C)NC(=O)[C@H](CCN)NC(=O)[C@H](Cc2c[nH]c3ccccc23)NC(=O)[C@H](CCN)NC(=O)[C@H](CCN)NC(=O)[C@H](CCCN)NC(=O)[C@H](CCN)NC(=O)[C@H](Cc2ccc(O)cc2)NC(=O)[C@H](CO)NC1=O [compound 49] (cyclo(VSY[Dab][Orn][Dab][Dab]W[Dab][Tle]AS[dP]P)) | 1%
CC(C)[C@@H]1NC(=O)[C@@H]2CCCN2C(=O)[C@H]2CCCN2C(=O)[C@H](CO)NC(=O)[C@H](C)NC(=O)[C@H](C(C)(C)C)NC(=O)[C@H](CCN)NC(=O)[C@H](Cc2c[nH]c3ccccc23)NC(=O)[C@H](CCN)NC(=O)[C@@H](CCN)NC(=O)[C@H](CCCN)NC(=O)[C@H](CCN)NC(=O)[C@H](CC2CCCCC2)NC(=O)[C@H](CO)NC1=O [compound 50] (cyclo(VS[Cha][Dab][Orn][dDab][Dab]W[Dab][Tle]AS[dP]P)) | 4%
CC(C)[C@@H]1NC(=O)[C@@H]2CCCN2C(=O)[C@H]2CCCN2C(=O)[C@H](CO)NC(=O)[C@H](C)NC(=O)[C@H](C(C)(C)C)NC(=O)[C@H](CCN)NC(=O)[C@H](Cc2c[nH]c3ccccc23)NC(=O)[C@H](CCN)NC(=O)[C@@H](CCN)NC(=O)[C@H](CCCN)NC(=O)[C@H](CCN)NC(=O)[C@H](CC2CCCCC2)NC(=O)[C@H](C)NC1=O [compound 51] (cyclo(VA[Cha][Dab][Orn][dDab][Dab]W[Dab][Tle]AS[dP]P)) | 1%
CC(C)[C@@H]1NC(=O)[C@@H]2[C@@H](O)CCN2C(=O)[C@H]2CCCN2C(=O)[C@H](CO)NC(=O)[C@H](C)NC(=O)[C@H](C(C)(C)C)NC(=O)[C@H](CCN)NC(=O)[C@H](Cc2c[nH]c3ccccc23)NC(=O)[C@H](CCN)NC(=O)[C@@H](CCN)NC(=O)[C@H](CCCN)NC(=O)[C@H](CCN)NC(=O)[C@H](Cc2ccc(O)cc2)NC(=O)[C@H](CO)NC1=O [compound 56] (cyclo(AS[dP][Pro(3S-OH)]VSY[Dab][Orn][dDab][Dab]W[Dab][Tle])) | 1%
CC(C)C[C@@H]1NC(=O)[C@@H]2[C@@H](O)CCN2C(=O)[C@H]2CCCN2C(=O)[C@H](CO)NC(=O)[C@H](C)NC(=O)[C@H](C(C)(C)C)NC(=O)[C@H](CCN)NC(=O)[C@H](Cc2c[nH]c3ccccc23)NC(=O)[C@H](CCN)NC(=O)[C@@H](CCN)NC(=O)[C@H](CCCN)NC(=O)[C@H](CCN)NC(=O)[C@H](Cc2ccc(O)cc2)NC(=O)[C@H](CO)NC1=O [compound 57] (cyclo(AS[dP][Pro(3S-OH)]LSY[Dab][Orn][dDab][Dab]W[Dab][Tle])) | 1%
CC(C)C[C@@H]1NC(=O)[C@@H]2[C@@H](O)CCN2C(=O)[C@H]2CCCN2C(=O)[C@H](CO)NC(=O)[C@H](C)NC(=O)[C@H](C(C)(C)C)NC(=O)[C@H](CCN)NC(=O)[C@H](Cc2c[nH]c3ccccc23)NC(=O)[C@H](CCN)NC(=O)[C@@H](CCN)NC(=O)[C@H](CCCN)NC(=O)[C@H](CCN)NC(=O)[C@H](CC2CCCCC2)NC(=O)[C@H](CO)NC1=O [compound 58] (cyclo(AS[dP][Pro(3S-OH)]LS[Cha][Dab][Orn][dDab][Dab]W[Dab][Tle])) | 1%
CC(C)C[C@@H]1NC(=O)[C@@H]2[C@@H](O)CCN2C(=O)[C@H]2CCCN2C(=O)[C@H](CO)NC(=O)[C@H](CNC(N)=O)NC(=O)[C@H](C(C)(C)C)NC(=O)[C@H](CCN)NC(=O)[C@H](Cc2c[nH]c3ccccc23)NC(=O)[C@H](CCN)NC(=O)[C@@H](CCN)NC(=O)[C@H](CCCN)NC(=O)[C@H](CCN)NC(=O)[C@H](CC2CCCCC2)NC(=O)[C@H](CO)NC1=O [compound 59] (cyclo([Cha][Dab][Orn][dDab][Dab]W[Dab][Tle][Dap(CONH2)]S[dP][Pro(3S-OH)]LS)) | 1%
CC(C)C[C@@H]1NC(=O)[C@@H]2[C@@H](O)CCN2C(=O)[C@H]2CCCN2C(=O)[C@H](CO)NC(=O)[C@H](CNC(N)=O)NC(=O)[C@H](C(C)(C)C)NC(=O)[C@H](CCN)NC(=O)[C@H](Cc2c[nH]c3ccccc23)NC(=O)[C@H](CCN)NC(=O)[C@@H](CCN)NC(=O)[C@H](CCCN)NC(=O)[C@H](CCN)NC(=O)[C@H](CC2CCCCC2)NC(=O)[C@H](C)NC1=O [compound 60] (cyclo(LA[Cha][Dab][Orn][dDab][Dab]W[Dab][Tle][Dap(CONH2)]S[dP][Pro(3S-OH)])) | 1%
C[C@@H]1NC(=O)[C@H](C(C)(C)C)NC(=O)[C@H](CCN)NC(=O)[C@H](Cc2c[nH]c3ccccc23)NC(=O)[C@H](CCN)NC(=O)[C@@H](CCN)NC(=O)[C@H](CCCN)NC(=O)[C@H](CCN)NC(=O)[C@H](CC2CCCCC2)NC(=O)[C@H](CN)NC(=O)[C@H](Cc2c[nH]c3ccccc23)NC(=O)[C@@H]2Cc3ccc(O)cc3CN2C(=O)[C@H]2CCCN2C(=O)[C@H](CO)NC1=O [compound 61] (cyclo(AS[dP][Tic(7-OH)]W[Dap][Cha][Dab][Orn][dDab][Dab]W[Dab][Tle])) | 2%
C[C@@H]1NC(=O)[C@H](C(C)(C)C)NC(=O)[C@H](CCN)NC(=O)[C@H](Cc2c[nH]c3ccccc23)NC(=O)[C@H](CCN)NC(=O)[C@@H](CCN)NC(=O)[C@H](CCCN)NC(=O)[C@H](CCN)NC(=O)[C@H](CC2CCCCC2)NC(=O)[C@H](CN)NC(=O)[C@H](Cc2c[nH]c3ccccc23)NC(=O)[C@@H]2CCCCN2C(=O)[C@H]2CCCN2C(=O)[C@H](CO)NC1=O [compound 63] (cyclo(AS[dP][Pip]W[Dap][Cha][Dab][Orn][dDab][Dab]W[Dab][Tle])) | 3%
C[C@@H]1NC(=O)[C@H](Cc2c[nH]c3ccccc23)NC(=O)[C@@H]2C[C@H](OCc3ccccc3)CN2C(=O)[C@H]2CCCN2C(=O)[C@H](CO)NC(=O)[C@H](C)NC(=O)[C@H](C(C)(C)C)NC(=O)[C@H](CCN)NC(=O)[C@H](Cc2c[nH]c3ccccc23)NC(=O)[C@H](CCN)NC(=O)[C@H](CCN)NC(=O)[C@H](CCCN)NC(=O)[C@H](CCN)NC(=O)[C@H](CC2CCCCC2)NC1=O [compound 64] (cyclo(WA[Cha][Dab][Orn][Dab][Dab]W[Dab][Tle]AS[dP][cisHyp](Bn))) | 3%
C[C@@H]1NC(=O)[C@H](Cc2c[nH]c3ccccc23)NC(=O)[C@@H]2[C@@H](O)CCN2C(=O)[C@H]2CCCN2C(=O)[C@H](CO)NC(=O)[C@H](CO)NC(=O)[C@H](C(C)(C)C)NC(=O)[C@H](CCN)NC(=O)[C@H](Cc2c[nH]c3ccccc23)NC(=O)[C@H](CCN)NC(=O)[C@@H](CCN)NC(=O)[C@H](CCCN)NC(=O)[C@H](CCN)NC(=O)[C@H](C2CCCCC2)NC1=O [compound 65] (cyclo(WA[Chg][Dab][Orn][dDab][Dab]W[Dab][Tle]SS[dP][Pro(3S-OH)])) | 3.5%
C[C@@H]1NC(=O)[C@H](CC2CCCCC2)NC(=O)[C@H](CCN)NC(=O)[C@H](Cc2c[nH]c3ccccc23)NC(=O)[C@H](CCN)NC(=O)[C@@H](CCN)NC(=O)[C@H](CCCN)NC(=O)[C@H](CCN)NC(=O)[C@H](C(C)(C)C)NC(=O)[C@H](CO)NC(=O)[C@H](Cc2ccc(O)cc2)NC(=O)[C@@H]2CCCN2C(=O)[C@H]2CCCN2C(=O)[C@H](CO)NC1=O [compound 66] (cyclo(YS[Tle][Dab][Orn][dDab][Dab]W[Dab][Cha]AS[dP]P)) | 4%
